Key:
[1] = target: T1, MET (Homo sapiens, UniProt P08581); assay: MET Mobility Shift Assay; conditions: biochemical assay IC50; 100 μM ATP, 60 minute kinase reaction
T1 construct: purchased Carna Biosciences 08-151
Protocol: (§1) Small molecule inhibition of MET kinase activity was evaluated using a fluorescence-based microfluidic mobility shift assay. MET catalyzes the production of ADP from ATP during phosphoryl transfer to the substrate peptide, FLPeptide30 (5-FAM-KKKKEEIYFFF-CONH2) (Perkin Elmer, 760430). MET enzme (Carna Biosciences, 08-151) at 0.625 nM was prepared with 10 mM MgCl2 and 1.5 μM substrate peptide in a buffer containing 50 mM HEPES, 1 mM EGTA, 0.01% Brij-35, 0.05% BSA, and 2 mM DTT and pre-incubated at room temperature for 30 min prior to the start of the reaction. 100 μM ATP was added to start the reaction. The mobility shift assay electrophoretically separates the fluorescently labeled peptides (substrate and phosphorylated product) following the 60 minute kinase reaction. The reaction was terminated by addition of 0.5 M EDTA. Both substrate and product were measured and the ratio of these values used to generate % conversion of substrate to product by the LabChip EZ reader (Perkin Elmer). ICso values were calculated using the inhibition of conversion ratio using Dotmatics Knowledge Solutions Studies curve fitting environment (Dotmatics, Bishops Stortford, UK, CM23) and are presented in Table 2.

[2] = target: T2, MET D1228N (Homo sapiens, UniProt P08581, D1228N); assay: MET D1228N Mobility Shift Assay; conditions: biochemical assay IC50; 100 μM ATP, 60 minute kinase reaction
T2 construct: purchased Signalchem M52-12IG
Protocol: as §1, with “MET D1228N” for “MET”, “a fluorescence -based” for “a fluorescence-based”, “FLPeptide30 (5-FAM-KKKKEEIYFFF -CONH2)” for “FLPeptide30 (5-FAM-KKKKEEIYFFF-CONH2)”, “MET D1228N enzyme (Signalchem, M52-12IG)” for “MET enzme (Carna Biosciences, 08-151)”, “at 0.313” for “at 0.625”

[3] = target: T3, Ba/F3-TPR-MET cells (Homo sapiens, UniProt P08581); assay: CellTiter-Glo Cell Viability Assay, Ba/F3-TPR-MET; type: cell-based; conditions: 72 hours
T3 construct: fused on or other part: P12270 (Nucleoprotein TPR)
Protocol: (§2) Ba/F3-TPR-MET and Ba/F3-TPR-MET-D1228N cells were seeded at 3000 cells per well in a 96 well plate in 90 μL growth media and allowed to incubate overnight at 37° C. with 5% CO2. The following day, compounds were serially diluted from a 10 mM top dose for a 9-point 3-fold dilution curve in DMSO. Following a 100-fold dilution in growth media, a further 10-fold dilution was made into the cell plate for a final volume of 100 μL and 0.1% DMSO. Compounds and cells were incubated together for 72 hours at 37° C. with 5% CO2. The CellTiter-Glo® 2.0 Assay determines the number of viable cells in culture by quantifying ATP, which indicates the presence of metabolically active cells. Luminescence readout is directly proportional to the number of viable cells in culture. CellTiter-Glo reagent (Promega, G9243) and cell plates were allowed to equilibrate to room temperature for at least 15 min, then 100 μL of CellTiter-Glo was added to each well for a 1:1 ratio of reagent to media. Samples were placed on a shaker for 2 min prior to a 30 min incubation at room temperature protected from light. Luminescence was read on a Perkin Elmer Envision plate reader 2105 and used to calculate ICso values within the Dotmatics Knowledge Solutions Studies curve fitting environment (Dotmatics, Bishops Stortford, UK, CM23) and are presented in Table 2.

[4] = target: T4, Ba/F3-TPR-MET-D1228N cells (Homo sapiens, UniProt P08581, D1228N, cells depend on it); assay: CellTiter-Glo Cell Viability Assay, Ba/F3-TPR-MET-D1228N; type: cell-based; conditions: 72 hours
T4 construct: fused on or other part: P12270 (Nucleoprotein TPR)
Protocol: as §2

T3 sequence (P08581 whole entry, change not shown, the tested form may be a part): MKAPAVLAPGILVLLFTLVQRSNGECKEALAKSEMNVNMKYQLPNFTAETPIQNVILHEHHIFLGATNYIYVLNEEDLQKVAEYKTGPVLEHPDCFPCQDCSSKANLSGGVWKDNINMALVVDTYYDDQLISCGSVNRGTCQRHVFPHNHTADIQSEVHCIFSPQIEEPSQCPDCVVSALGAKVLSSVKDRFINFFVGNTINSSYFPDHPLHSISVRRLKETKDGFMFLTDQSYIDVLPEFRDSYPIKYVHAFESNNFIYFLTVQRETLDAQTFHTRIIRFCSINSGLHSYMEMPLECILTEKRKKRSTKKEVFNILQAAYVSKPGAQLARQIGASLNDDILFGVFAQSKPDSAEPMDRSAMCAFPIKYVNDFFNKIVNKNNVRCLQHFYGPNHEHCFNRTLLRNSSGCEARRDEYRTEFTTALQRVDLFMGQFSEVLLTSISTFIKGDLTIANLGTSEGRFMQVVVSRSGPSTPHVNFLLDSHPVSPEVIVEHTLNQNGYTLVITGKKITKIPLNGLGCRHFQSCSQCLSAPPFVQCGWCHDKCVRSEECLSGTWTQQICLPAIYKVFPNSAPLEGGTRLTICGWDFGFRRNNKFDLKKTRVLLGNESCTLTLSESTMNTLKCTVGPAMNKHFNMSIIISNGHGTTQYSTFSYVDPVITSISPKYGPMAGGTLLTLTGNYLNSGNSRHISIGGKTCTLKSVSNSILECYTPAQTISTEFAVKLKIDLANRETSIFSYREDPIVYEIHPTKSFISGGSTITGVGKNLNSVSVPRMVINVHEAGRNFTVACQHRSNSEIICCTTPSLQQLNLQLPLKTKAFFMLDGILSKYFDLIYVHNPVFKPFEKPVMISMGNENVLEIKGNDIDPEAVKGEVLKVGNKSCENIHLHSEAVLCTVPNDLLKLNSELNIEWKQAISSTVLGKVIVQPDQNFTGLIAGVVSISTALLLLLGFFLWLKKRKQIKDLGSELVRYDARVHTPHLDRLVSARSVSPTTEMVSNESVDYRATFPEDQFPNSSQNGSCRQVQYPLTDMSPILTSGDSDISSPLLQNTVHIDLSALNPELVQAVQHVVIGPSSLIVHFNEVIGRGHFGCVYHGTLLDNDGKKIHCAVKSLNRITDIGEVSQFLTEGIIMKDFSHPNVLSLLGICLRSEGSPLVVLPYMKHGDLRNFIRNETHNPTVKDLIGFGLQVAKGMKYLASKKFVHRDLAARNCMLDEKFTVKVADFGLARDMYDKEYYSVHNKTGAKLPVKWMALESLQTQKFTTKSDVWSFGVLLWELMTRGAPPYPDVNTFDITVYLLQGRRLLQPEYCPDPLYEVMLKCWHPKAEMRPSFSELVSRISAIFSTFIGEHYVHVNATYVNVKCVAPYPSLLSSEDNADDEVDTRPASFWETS
T1 sequence (P08581 25-1390): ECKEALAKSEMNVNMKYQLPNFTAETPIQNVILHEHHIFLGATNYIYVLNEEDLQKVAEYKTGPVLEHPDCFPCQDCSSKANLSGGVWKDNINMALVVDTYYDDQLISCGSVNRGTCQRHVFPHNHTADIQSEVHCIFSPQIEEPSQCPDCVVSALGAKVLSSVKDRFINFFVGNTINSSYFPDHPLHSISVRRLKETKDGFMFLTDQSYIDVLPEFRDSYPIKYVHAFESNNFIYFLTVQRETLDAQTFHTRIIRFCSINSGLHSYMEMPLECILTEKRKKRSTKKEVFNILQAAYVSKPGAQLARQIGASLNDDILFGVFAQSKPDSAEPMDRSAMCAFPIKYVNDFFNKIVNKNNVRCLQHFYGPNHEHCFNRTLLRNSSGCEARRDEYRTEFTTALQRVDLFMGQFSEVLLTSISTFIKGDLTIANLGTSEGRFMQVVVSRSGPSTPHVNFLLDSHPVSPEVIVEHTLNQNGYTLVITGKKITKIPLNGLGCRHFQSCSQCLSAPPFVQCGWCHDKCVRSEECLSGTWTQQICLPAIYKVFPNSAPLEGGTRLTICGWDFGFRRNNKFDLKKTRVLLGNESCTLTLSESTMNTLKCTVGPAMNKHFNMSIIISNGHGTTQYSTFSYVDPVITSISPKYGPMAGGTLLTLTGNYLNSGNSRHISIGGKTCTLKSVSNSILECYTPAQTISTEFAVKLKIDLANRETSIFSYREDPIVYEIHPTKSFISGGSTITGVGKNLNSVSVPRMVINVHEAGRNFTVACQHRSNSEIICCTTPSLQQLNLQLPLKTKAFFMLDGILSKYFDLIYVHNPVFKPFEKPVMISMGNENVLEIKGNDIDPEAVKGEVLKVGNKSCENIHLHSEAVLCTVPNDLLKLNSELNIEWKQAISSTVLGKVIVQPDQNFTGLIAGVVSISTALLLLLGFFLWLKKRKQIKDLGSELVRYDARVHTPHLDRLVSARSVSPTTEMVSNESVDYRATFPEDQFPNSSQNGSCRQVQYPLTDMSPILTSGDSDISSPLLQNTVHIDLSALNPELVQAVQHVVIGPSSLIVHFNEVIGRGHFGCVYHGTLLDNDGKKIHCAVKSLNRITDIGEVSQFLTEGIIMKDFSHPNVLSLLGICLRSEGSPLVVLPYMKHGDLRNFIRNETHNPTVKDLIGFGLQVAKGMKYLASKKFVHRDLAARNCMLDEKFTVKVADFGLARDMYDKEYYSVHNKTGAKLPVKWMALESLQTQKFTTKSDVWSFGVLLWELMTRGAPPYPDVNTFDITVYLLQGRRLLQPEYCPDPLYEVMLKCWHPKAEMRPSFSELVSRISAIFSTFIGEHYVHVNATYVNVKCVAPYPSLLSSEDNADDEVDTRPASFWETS
T4 sequence (P08581 whole entry D1228N, the tested form may be a part): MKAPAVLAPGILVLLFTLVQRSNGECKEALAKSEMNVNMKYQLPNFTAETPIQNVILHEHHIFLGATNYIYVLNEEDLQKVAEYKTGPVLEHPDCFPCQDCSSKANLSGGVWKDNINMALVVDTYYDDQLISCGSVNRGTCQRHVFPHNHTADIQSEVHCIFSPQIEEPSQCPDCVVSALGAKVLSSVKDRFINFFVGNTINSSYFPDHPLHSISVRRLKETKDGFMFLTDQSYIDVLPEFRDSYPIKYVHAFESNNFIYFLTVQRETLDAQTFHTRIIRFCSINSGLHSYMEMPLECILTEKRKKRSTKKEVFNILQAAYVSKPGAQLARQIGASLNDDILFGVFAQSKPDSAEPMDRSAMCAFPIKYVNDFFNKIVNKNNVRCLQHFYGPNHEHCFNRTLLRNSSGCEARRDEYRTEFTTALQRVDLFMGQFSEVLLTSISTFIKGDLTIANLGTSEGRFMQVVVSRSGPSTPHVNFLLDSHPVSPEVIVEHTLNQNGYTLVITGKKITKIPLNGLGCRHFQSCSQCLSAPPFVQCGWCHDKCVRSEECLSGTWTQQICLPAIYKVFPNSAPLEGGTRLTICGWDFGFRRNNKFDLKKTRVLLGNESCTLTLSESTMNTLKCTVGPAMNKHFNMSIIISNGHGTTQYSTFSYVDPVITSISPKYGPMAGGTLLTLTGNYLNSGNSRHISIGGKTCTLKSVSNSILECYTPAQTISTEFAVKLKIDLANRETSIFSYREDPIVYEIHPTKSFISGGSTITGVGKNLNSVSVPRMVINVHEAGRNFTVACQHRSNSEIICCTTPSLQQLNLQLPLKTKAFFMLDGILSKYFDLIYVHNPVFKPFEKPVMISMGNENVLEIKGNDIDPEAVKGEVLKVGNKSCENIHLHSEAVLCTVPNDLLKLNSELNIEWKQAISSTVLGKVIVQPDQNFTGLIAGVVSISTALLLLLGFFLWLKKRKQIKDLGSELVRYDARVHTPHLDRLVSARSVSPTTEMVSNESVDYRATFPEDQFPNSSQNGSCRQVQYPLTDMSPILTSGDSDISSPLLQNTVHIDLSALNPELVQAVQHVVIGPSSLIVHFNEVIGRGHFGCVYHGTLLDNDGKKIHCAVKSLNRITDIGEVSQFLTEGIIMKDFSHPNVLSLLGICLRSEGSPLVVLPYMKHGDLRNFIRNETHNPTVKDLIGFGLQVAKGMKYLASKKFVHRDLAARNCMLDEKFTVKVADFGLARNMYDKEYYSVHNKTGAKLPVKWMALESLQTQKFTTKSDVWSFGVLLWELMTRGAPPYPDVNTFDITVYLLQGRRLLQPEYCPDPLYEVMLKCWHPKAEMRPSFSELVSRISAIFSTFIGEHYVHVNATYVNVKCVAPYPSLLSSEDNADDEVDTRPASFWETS

| SMILES | IC50 [1] [nM] | IC50 [2] [nM] | EC50 [3] [nM] | EC50 [4] [nM] |
| --- | --- | --- | --- | --- |
| CNCCCOc1cc2nccc(Nc3c(F)cc(NC(=O)c4cnccc4OC)cc3F)c2cc1OC [Example 19, N-(3,5-difluoro-4-((6-methoxy-7-(3-(methylamino)propoxy)quinolin-4-yl)amino)phenyl)-4-methoxypyridine-3-carboxamide] | ≤ 100 | ≤ 100 | > 10000 | > 10000 |
| CNCCCOc1cc2nccc(Oc3c(F)cc(NC(=O)c4c(OC)ccnc4F)cc3F)c2cc1OC [Example 20, N-(3,5-difluoro-4-((6-methoxy-7-(3-(methylamino)propoxy)quinolin-4-yl)oxy)phenyl)-2-fluoro-4-methoxypyridine-3-carboxamide] | ≤ 100 | ≤ 100 | ≤ 100 | ≤ 100 |
| CNCCCOc1cc2nccc(Oc3cc(F)c(NC(=O)c4cnccc4OC)cc3F)c2cc1OC [Example 22, N-[2,5-difluoro-4-({6-methoxy-7-[3-(methylamino)propoxy]quinolin-4-yl}oxy)phenyl]-4-methoxypyridine-3-carboxamide] | ≤ 100 | ≤ 100 | 100 to 1000 | 100 to 1000 |
| CCOc1ccncc1C(=O)Nc1cc(F)c(Oc2ccnc3cc(OCCCN(C)C)c(OC)cc23)cc1F [Example 23, N-(4-((7-(3-(dimethylamino)propoxy)-6-methoxyquinolin-4-yl)oxy)-2,5-difluorophenyl)-4-ethoxypyridine-3-carboxamide] | ≤ 100 | ≤ 100 | 100 to 1000 | ≤ 100 |
| CNCCOc1cc2nccc(Oc3cc(F)c(NC(=O)c4cnccc4OC)cc3F)c2cc1OC [Example 24, N-[2,5-difluoro-4-({6-methoxy-7-[2-(methylamino)ethoxy]quinolin-4-yl}oxy)phenyl]-4-methoxypyridine-3-carboxamide] | ≤ 100 | ≤ 100 | 100 to 1000 | ≤ 100 |
| CNCCOc1cc2nccc(Oc3cc(F)c(NC(=O)c4c(OC)ccnc4F)cc3F)c2cc1OC [Example 25, N-[2,5-difluoro-4-({6-methoxy-7-[2-(methylamino)ethoxy]quinolin-4-yl}oxy)phenyl]-2-fluoro-4-methoxypyridine-3-carboxamide] | ≤ 100 | ≤ 100 | 100 to 1000 | 100 to 1000 |
| COc1cc2c(Oc3cc(F)c(NC(=O)c4cnccc4OC)cc3F)ccnc2cc1OCCCN1CCOCC1 [Example 27, N-[2,5-difluoro-4-({6-methoxy-7-[3-(morpholin-4-yl)propoxy]quinolin-4-yl}oxy)phenyl]-4-methoxypyridine-3-carboxamide] | ≤ 100 | ≤ 100 | 100 to 1000 | 100 to 1000 |
| CCOc1ccncc1C(=O)Nc1cc(F)c(Oc2ccnc3cc(OCCCN4CCOCC4)c(OC)cc23)c(F)c1 [Example 28, N-(3,5-difluoro-4-((6-methoxy-7-(3-morpholinopropoxy)quinolin-4-yl)oxy)phenyl)-4-ethoxypyridine-3-carboxamide] | ≤ 100 | ≤ 100 | ≤ 100 | ≤ 100 |
| COc1cc2c(Oc3cc(F)c(NC(=O)c4cnc(N)cc4OC)cc3F)ccnc2cc1OCCCN1CCOCC1 [Example 31, 6-amino-N-(2,5-difluoro-4-((6-methoxy-7-(3-morpholinopropoxy)quinolin-4-yl)oxy)phenyl)-4-methoxypyridine-3-carboxamide] | ≤ 100 | ≤ 100 | 100 to 1000 | 100 to 1000 |
| CCOc1cc(N)ncc1C(=O)Nc1cc(F)c(Oc2ccnc3cc(OCCCN4CCOCC4)c(OC)cc23)cc1F [Example 32, 6-amino-N-[2,5-difluoro-4-({6-methoxy-7-[3-(morpholin-4-yl)propoxy]quinolin-4-yl}oxy)phenyl]-4-ethoxypyridine-3-carboxamide] | ≤ 100 | ≤ 100 | 100 to 1000 | 100 to 1000 |

Continued, in another order:

| IC50 [1] [nM] | IC50 [2] [nM] | SMILES | EC50 [3] [nM] | EC50 [4] [nM] |
| --- | --- | --- | --- | --- |
| ≤ 100 | ≤ 100 | CCOc1ccncc1C(=O)Nc1cc(F)c(Oc2ccnc3cc(OCCCNC)c(OC)cc23)c(F)c1 [Example 21, N-(3,5-difluoro-4-((6-methoxy-7-(3-(methylamino)propoxy)quinolin-4-yl)oxy)phenyl)-4-ethoxypyridine-3-carboxamide] | 100 to 1000 | 100 to 1000 |
| ≤ 100 | ≤ 100 | COc1cc2c(Oc3c(F)cc(NC(=O)c4cnccc4OC)cc3F)ccnc2cc1OCCN1CCOCC1 [Example 29, N-[3,5-difluoro-4-({6-methoxy-7-[2-(morpholin-4-yl)ethoxy]quinolin-4-yl}oxy)phenyl]-4-methoxypyridine-3-carboxamide] | ≤ 100 | ≤ 100 |
| ≤ 100 | ≤ 100 | COc1cc2c(Oc3c(F)cc(NC(=O)c4cnccc4OC)cc3F)ccnc2cc1OCCCN1CCOCC1 [Example 30, N-(3,5-difluoro-4-((6-methoxy-7-(3-morpholinopropoxy)quinolin-4-yl)oxy)phenyl)-4-methoxypyridine-3-carboxamide] | ≤ 100 | ≤ 100 |
| ≤ 100 | ≤ 100 | COc1cc2nccc(Oc3c(F)cc(NC(=O)c4cnccc4OC)cc3F)c2cc1OC [Example 34, N-(4-((6,7-dimethoxyquinolin-4-yl)oxy)-3,5-difluorophenyl)-4-methoxypyridine-3-carboxamide] | 100 to 1000 | ≤ 100 |
| ≤ 100 | ≤ 100 | COc1ccc2c(Oc3c(F)cc(NC(=O)c4cnccc4OC)cc3F)ccnc2c1 [Example 35, N-{3,5-difluoro-4-[(7-methoxyquinolin-4-yl)oxy]phenyl}-4-methoxypyridine-3-carboxamide] | 100 to 1000 | 100 to 1000 |
| ≤ 100 | ≤ 100 | COc1cc2nccc(Oc3c(F)cc(NC(=O)c4cnccc4OC)cc3F)c2cn1 [Example 36, N-{3,5-difluoro-4-[(7-methoxy-1,6-naphthyridin-4-yl)oxy]phenyl}-4-methoxypyridine-3-carboxamide] | 100 to 1000 | 100 to 1000 |
| ≤ 100 | ≤ 100 | COc1cc2c(Oc3c(F)cc(NC(=O)c4cnccc4OC)cc3F)ccnc2cc1OC(F)(F)F [Example 37, N-(3,5-difluoro-4-((6-methoxy-7-(trifluoromethoxy)quinolin-4-yl)oxy)phenyl)-4-methoxypyridine-3-carboxamide] | 100 to 1000 | 100 to 1000 |
| ≤ 100 | ≤ 100 | COc1cc2c(Oc3c(F)cc(NC(=O)c4cnccc4OC)cc3F)ccnc2cc1OC(F)F [Example 38, N-(4-((7-(difluoromethoxy)-6-methoxyquinolin-4-yl)oxy)-3,5-difluorophenyl)-4-methoxypyridine-3-carboxamide] | > 10000 | > 10000 |
| ≤ 100 | ≤ 100 | COc1cc2c(Oc3c(F)cc(NC(=O)c4cnccc4OC)cc3F)ccnc2cc1OCC(C)(C)O [Example 39, N-(3,5-difluoro-4-((7-(2-hydroxy-2-methylpropoxy)-6-methoxyquinolin-4-yl)oxy)phenyl)-4-methoxypyridine-3-carboxamide] | 100 to 1000 | ≤ 100 |

Reference: patent US11753395B2 (Kinnate Biopharma Inc., priority 2021, dated 2023)
